Assay results reported in patent publication US8865623B2, “Herbicidally active cyclic diones and derivatives thereof, processes for their preparation, compositions, and method of controlling weeds” (Syngenta Limited, priority 2009, dated 2014).

Experiments:
Format in all cases: in vivo
Lolium perenne (LOLPE) [1] = experiment: Pre-emergence herbicidal activity, glasshouse pot test; conditions: Lolium perenne, 312 h; Rate 250 g/ha; pre-emergence spray; evaluated after 13 days; read-out: Pre-emergence activity LOLPE (100=total damage to plant; 0=no damage to plant)
How it was run: (§1)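 Glasshouse pots, standard soil; spray at day 1 (pre) or day 8 (post) after sowing; a.i. in acetone/water 50:50 + 0.5% Tween 20, diluted aqueous. 24/16° C, 14 h light, 65% RH. Visual damage at 13 days: 0 = none, 100 = total.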

[2] = system: Alopecurus myosuroides (ALOMY); experiment: as above; conditions: Alopecurus myosuroides, 312 h; Rate 250 g/ha; pre-emergence spray; evaluated after 13 days; read-out: Pre-emergence activity ALOMY (100=total damage to plant; 0=no damage to plant)
How it was run: as §1

[3] = system: Echinochloa crus-galli (ECHCG); experiment: as above; conditions: Echinochloa crus-galli, 312 h; Rate 250 g/ha; pre-emergence spray; evaluated after 13 days; read-out: Pre-emergence activity ECHCG (100=total damage to plant; 0=no damage to plant)
How it was run: as §1

Avena fatua (AVEFA) [4] = experiment: as above; conditions: Avena fatua, 312 h; Rate 250 g/ha; pre-emergence spray; evaluated after 13 days; read-out: Pre-emergence activity AVEFA (100=total damage to plant; 0=no damage to plant)
How it was run: as §1

Lolium perenne (LOLPE) [5] = experiment: Post-emergence herbicidal activity, glasshouse pot test; conditions: Lolium perenne, 312 h, rate 250 g/ha, evaluated after 13 days, glasshouse, read-out: Post-emergence activity LOLPE (100=total damage to plant; 0=no damage to plant)
How it was run: as §1

[6] = system: Alopecurus myosuroides (ALOMY); experiment: as above; conditions: Alopecurus myosuroides, 312 h, rate 250 g/ha, evaluated after 13 days, glasshouse, read-out: Post-emergence activity ALOMY (100=total damage to plant; 0=no damage to plant)
How it was run: as §1

[7] = system: Echinochloa crus-galli (ECHCG); experiment: as above; conditions: Echinochloa crus-galli, 312 h, rate 250 g/ha, evaluated after 13 days, glasshouse, read-out: Post-emergence activity ECHCG (100=total damage to plant; 0=no damage to plant)
How it was run: as §1

Avena fatua (AVEFA) [8] = experiment: as above; conditions: Avena fatua, 312 h, rate 250 g/ha, evaluated after 13 days, glasshouse, read-out: Post-emergence activity AVEFA (100=total damage to plant; 0=no damage to plant)
How it was run: as §1

## CCc1ccc(Oc2nc3ccccc3cc2C)cc1C1=C(O)C(C)(C)OC(C)(C)C1=O [Example A-253]
Lolium perenne (LOLPE) [1]
  pest or weed control at 250 g/ha: 100%
[2]
  pest or weed control at 250 g/ha: 70%
[3]
  pest or weed control at 250 g/ha: 80%
Avena fatua (AVEFA) [4]
  pest or weed control at 250 g/ha: 30%
Lolium perenne (LOLPE) [5]
  pest or weed control at 250 g/ha: 70%
[6]
  pest or weed control at 250 g/ha: 50%
[7]
  pest or weed control at 250 g/ha: 70%
Avena fatua (AVEFA) [8]
  pest or weed control at 250 g/ha: 40%

## CCc1ccc(Oc2ccc(C#N)c(Cl)c2)cc1C1=C(O)CC2(CCOCC2)CC1=O [Example A-277]
Lolium perenne (LOLPE) [1]
  pest or weed control at 250 g/ha: 100%
[2]
  pest or weed control at 250 g/ha: 30%
[3]
  pest or weed control at 250 g/ha: 100%
Avena fatua (AVEFA) [4]
  pest or weed control at 250 g/ha: 30%
Lolium perenne (LOLPE) [5]
  pest or weed control at 250 g/ha: 100%
[6]
  pest or weed control at 250 g/ha: 30%
[7]
  pest or weed control at 250 g/ha: 100%
Avena fatua (AVEFA) [8]
  pest or weed control at 250 g/ha: 80%

## CCc1ccc(Oc2ccc(C(F)(F)F)cc2)cc1C1=C(O)C(C)(C)OC(C)(C)C1=O [Example A-97]
Lolium perenne (LOLPE) [1]
  pest or weed control at 250 g/ha: 100%
[2]
  pest or weed control at 250 g/ha: 80%
[3]
  pest or weed control at 250 g/ha: 100%
Avena fatua (AVEFA) [4]
  pest or weed control at 250 g/ha: 90%
Lolium perenne (LOLPE) [5]
  pest or weed control at 250 g/ha: 90%
[6]
  pest or weed control at 250 g/ha: 100%
[7]
  pest or weed control at 250 g/ha: 100%
Avena fatua (AVEFA) [8]
  pest or weed control at 250 g/ha: 90%

## CCc1ccc(Oc2ccc([N+](=O)[O-])c(Cl)c2)cc1C1=C(O)[C@@H]2CC[C@](C)(C1=O)C2(C)C [Example A-316]
Lolium perenne (LOLPE) [1]
  pest or weed control at 250 g/ha: 100%
[2]
  pest or weed control at 250 g/ha: 70%
[3]
  pest or weed control at 250 g/ha: 100%
Avena fatua (AVEFA) [4]
  pest or weed control at 250 g/ha: 60%
Lolium perenne (LOLPE) [5]
  pest or weed control at 250 g/ha: 40%
[6]
  pest or weed control at 250 g/ha: 50%
[7]
  pest or weed control at 250 g/ha: 100%
Avena fatua (AVEFA) [8]
  pest or weed control at 250 g/ha: 80%

## CCc1ccc(Oc2ccc(F)cc2)cc1C1=C(O)CC(C)(C)CC1=O [Example A-28]
Lolium perenne (LOLPE) [1]
  pest or weed control at 250 g/ha: 40%
[2]
  pest or weed control at 250 g/ha: 20%
[3]
  pest or weed control at 250 g/ha: 70%
Avena fatua (AVEFA) [4]
  pest or weed control at 250 g/ha: 0%
Lolium perenne (LOLPE) [5]
  pest or weed control at 250 g/ha: 40%
[6]
  pest or weed control at 250 g/ha: 30%
[7]
  pest or weed control at 250 g/ha: 80%
Avena fatua (AVEFA) [8]
  pest or weed control at 250 g/ha: 20%

## CCc1ccc(Oc2ncc(Cl)cc2C(F)(F)F)cc1C1=C(O)[C@@H]2CC[C@](C)(C1=O)C2(C)C [Example A-329]
Lolium perenne (LOLPE) [1]
  pest or weed control at 250 g/ha: 100%
[2]
  pest or weed control at 250 g/ha: 90%
[3]
  pest or weed control at 250 g/ha: 100%
Avena fatua (AVEFA) [4]
  pest or weed control at 250 g/ha: 90%
Lolium perenne (LOLPE) [5]
  pest or weed control at 250 g/ha: 70%
[6]
  pest or weed control at 250 g/ha: 80%
[7]
  pest or weed control at 250 g/ha: 100%
Avena fatua (AVEFA) [8]
  pest or weed control at 250 g/ha: 90%

## CCc1ccc(Oc2ccc3ccccc3c2)cc1C1=C(O)C(C)(C)OC(C)(C)C1=O [Example A-56]
Lolium perenne (LOLPE) [1]
  pest or weed control at 250 g/ha: 100%
[2]
  pest or weed control at 250 g/ha: 80%
[3]
  pest or weed control at 250 g/ha: 80%
Avena fatua (AVEFA) [4]
  pest or weed control at 250 g/ha: 30%
Lolium perenne (LOLPE) [5]
  pest or weed control at 250 g/ha: 100%
[6]
  pest or weed control at 250 g/ha: 100%
[7]
  pest or weed control at 250 g/ha: 100%
Avena fatua (AVEFA) [8]
  pest or weed control at 250 g/ha: 0%

## CCc1ccc(Oc2ccc([N+](=O)[O-])cc2F)cc1C1=C(O)C(C)(C)OC(C)(C)C1=O [Example A-20]
Lolium perenne (LOLPE) [1]
  pest or weed control at 250 g/ha: 0%
[2]
  pest or weed control at 250 g/ha: 40%
[3]
  pest or weed control at 250 g/ha: 100%
Avena fatua (AVEFA) [4]
  pest or weed control at 250 g/ha: 20%
Lolium perenne (LOLPE) [5]
  pest or weed control at 250 g/ha: 50%
[6]
  pest or weed control at 250 g/ha: 0%
[7]
  pest or weed control at 250 g/ha: 80%
Avena fatua (AVEFA) [8]
  pest or weed control at 250 g/ha: 70%

## CCc1ccc(Oc2cnc3ccccc3n2)cc1C1=C(O)CC(C)(C)CC1=O [Example A-291]
Lolium perenne (LOLPE) [1]
  pest or weed control at 250 g/ha: 100%
[2]
  pest or weed control at 250 g/ha: 70%
[3]
  pest or weed control at 250 g/ha: 100%
Avena fatua (AVEFA) [4]
  pest or weed control at 250 g/ha: 90%
Lolium perenne (LOLPE) [5]
  pest or weed control at 250 g/ha: 100%
[6]
  pest or weed control at 250 g/ha: 100%
[7]
  pest or weed control at 250 g/ha: 100%
Avena fatua (AVEFA) [8]
  pest or weed control at 250 g/ha: 100%
